Laboratory results as given in patent US20200129582A1, “NOVEL PEPTIDES AND PEPTIDOMIMETICS” (UNIVERSITY OF AUCKLAND, priority 2016, published 2020).
Values joined by “and” are separate entries in the source; they are usually repeats but may differ in a detail not shown here. Equal values may be shown once. Read-outs that look alike come from different tables or passages of the source.

Target: T1, hemichannel-mediated ATP release from hCMVEC cells (Homo sapiens, UniProt P17302)
T1 construct: endogenous in cells; host or cells: hCMVEC (human cerebral microvascular endothelial cells)
T1 sequence (P17302 2-382 limits assumed): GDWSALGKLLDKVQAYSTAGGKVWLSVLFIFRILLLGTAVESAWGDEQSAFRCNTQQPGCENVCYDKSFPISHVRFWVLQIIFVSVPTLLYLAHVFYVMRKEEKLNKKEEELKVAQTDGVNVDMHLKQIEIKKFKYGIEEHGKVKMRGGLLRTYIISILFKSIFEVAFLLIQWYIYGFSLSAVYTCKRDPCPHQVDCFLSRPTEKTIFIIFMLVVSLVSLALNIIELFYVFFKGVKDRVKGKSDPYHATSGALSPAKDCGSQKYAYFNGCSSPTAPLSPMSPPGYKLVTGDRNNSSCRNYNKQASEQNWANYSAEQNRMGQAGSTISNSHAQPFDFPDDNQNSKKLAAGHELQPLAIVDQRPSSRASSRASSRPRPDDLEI
Assay: In vitro ischemia injury ATP release assay (single alanine substituted and truncated peptides)
Assay type: cell-based
Procedure: The human cerebral endothelial cells (hCMVEC) were plated at a density of 0.025×10^6 cells per well in a collagen-coated 12-well plate (1 μg/cm^2) a day prior to the experiment. Cells were incubated in culture medium overnight. Hypoxic, acidic, ion-shifted Ringer injury solution that mimics ionic concentrations and acid-base shifts of the interstitial space in hypoxic-ischemic brains (Bondarenko and Chesler, 2001, […]) was used to trigger hemichannel opening. The injury solution contained (in mM): 38 NaCl, 13 NaHCO3, 3 Na-gluconate, 65 K-gluconate, 38 NMDG-Cl, 1 NaH2PO4, and 1.5 MgCl2. The injury solution was bubbled in 95% N2, 5% CO2 gas (20 L/min) for 5 minutes and pH adjusted to 6.6 before use. The standard ringer solution contained (in mM): 124 NaCl, 3 KCl, 26 NaHCO3, 26 NaHCO3, 1 NaH2PO4, 1.3 CaCl2, 1.5 MgCl2, and 10 Glucose, and pH adjusted to 7.4 before use (Bondarenko and Chesler, 2001). In the ischemia injury model, hCMVEC cells were incubated for 2 hours in 500 μL injury solution+/−Peptide5 (100 μM) (O'Carroll et al., 2008, Cell communication & adhesion 15:27-42; Danesh-Meyer et al., 2012, Brain: a journal of neurology 135:506-520; Davidson et al., 2012, Annals of neurology 71:121-132; Davidson et al., 2013, Experimental neurology 248:301-308; Davidson et al., 2014, PloS one 9:e96558; Davidson et al., 2015, J Cereb Blood Flow Metab), or +/−extracellular loop sequences (Table 5), or modified peptides (Table 2, 3) dissolved in injury solution (500 μL) with a final concentration of 100 μM. For negative control, hCMVEC cells were incubated only in 500 μL standard ringer solution for 2 hours. For positive control, hCMVEC cells were incubated only in 500 μL […] for 2 hours. All incubations were conducted at 37° C. in 95% O2 and 5% CO2. At the end of each experiment, samples were removed and immediately placed on ice. The concentration of ATP in the samples was determined using a Luciferin/luciferase bioluminescence reaction (ATP Determination Kit, Molecular Probes) and detected using a luminescence plate reader (VICTOR X, Perkin Elmer #2030-0010). Standard curves were generated in each experiment from an ATP standard (0 to 500 nM) to convert bioluminescence units to ATP concentration. […] The data is presented as mean±standard error relative to the injury or injury-reperfusion positive control. Statistically significant differences between samples were tested using one-way analysis of variance and Tukey's multiple comparisons test.
Peptides listed in table 5 and 2 were assessed using the ischemia injury model in hCMVEC cells as described above, and the medium was collected for ATP release measurement.
The human cerebral endothelial cells (hCMVEC) were plated at a density of 0.025×10^6 cells per well in a collagen-coated 12-well plate (1 μg/cm^2) a day prior to the experiment. Cells were incubated in culture medium overnight. Hypoxic, acidic, ion-shifted Ringer injury solution that mimics ionic concentrations and acid-base shifts of the interstitial space in hypoxic-ischemic brains (Bondarenko and Chesler, 2001) was used to trigger hemichannel opening. The injury solution contained (in mM): 38 NaCl, 13 NaHCO3, 3 Na-gluconate, 65 K-gluconate, 38 NMDG-Cl, 1 NaH2PO4, and 1.5 MgCl2. The injury solution was bubbled in 95% N2, 5% CO2 gas (20 L/min) for 5 minutes and pH adjusted to 6.6 before use. The standard ringer solution contained (in mM): 124 NaCl, 3 KCl, 26 NaHCO3, 26 NaHCO3, 1 NaH2PO4, 1.3 CaCl2, 1.5 MgCl2, and 10 Glucose, and pH adjusted to 7.4 before use (Bondarenko and Chesler, 2001).

Compound | ATP release compared to injury control (in words) | ATP release, % of the injury control | ATP release compared to injury control (in words) (hCMVEC, 100 μM, FIG. 3) | ATP release, % of the injury control (hCMVEC, ischemic injury solution 2 hours, 100 μM, FIG. 3, injury control 100±3.6%)
VDCFLSRPTEKT [Peptide5] | significantly reduced ATP release | 44.6±7.7% and 47.3±5.1% |  | 
CC1(C)[C@@H](OC(=O)CCC(=O)O)CC[C@]2(C)[C@H]3C(=O)C=C4[C@@H]5C[C@@](C)(C(=O)O)CC[C@]5(C)CC[C@@]4(C)[C@]3(C)CC[C@@H]12 [CBX, Carbenoxolone] |  |  | significantly reduced ATP release | 9.1±10.1%
